Test results as given in patent US9718790B2, “Triazine derivative and pharmaceutical composition having an analgesic activity comprising the same” (SHIONOGI & CO., LTD., priority 2010, dated 2017).

How the values were obtained:
CYP2C19 = CYP2C19 (Homo sapiens (Human), UniProt P33261); experiment: CYP inhibition test, pooled human hepatic microsome, mephenytoin 4'-hydroxylation; format: in vitro ADME; conditions: substrate S-mephenitoin
Method: (§1) Using commercially available pooled human hepatic microsome, and employlng, as markers, 7-ethoxyresorufin O-deethylation (CYP1A2), tolbutamide methyl-hydroxylation (CYP2C9), mephenyloin 4′-hydroxylation (CYP2C19), dextromethorphan O-demethylation (CYP2D6), and terfenedine hydroxylation as typical substrate metabolism reactions of human main five CYP enzyme forms (CYP1A2, 2C9, 2C19, 2D6, 3A4), an inhibitory degree of each metabolite production amount by a test compound was assessed.
(§2) The reaction conditions were as follows: substrate, 0.5 μmol/L ethoxyresorufin (CYP1A2), 100 μmol/L tolbutamide (CYP2C9), 50 μmol/L S-mephenitoin (CYP2C19), 5 μmol/L dextromethorphan (CYP2D6), 1 μmol/L terfenedine (CYP3A4) reaction time, 15 minutes; reaction temperature, 37° C; enzyme, pooled human hepatic microsome 0.2 mg protein/mL; test drug concentration, 1.0, 5.0, 10, 20 μmol/L (four points).
(§3) Each five kinds of substrates, human hepatic microsome, or a test drug in 50 mmol/L Hepes buffer as a reaction solution was added to a 96-well plate at the composition as described above, NADPH, as a cofactor was added to initiate metabolism reactions as markers and, after the incubation at 37° C. for 15 minutes, a methanol/acetonitrile=1/1 (v/v) solution was added to stop the reaction. After the centrifugation at 3000 rpm for 15 minutes, resorufin (CYP1A2 metabolite) in the supernatant was quantified by a fluorescent multilabel counter and tributamide hydroxide (CYP2CP metabolite), mephenyloin 4′ hydroxide (CYP2C19 metabolite), […] (CYP2D6 metabolite), and terfenadine alcohol (CYP3A4 metabolite) were quantified by LC/MS/MS.

CYP1A2 = CYP1A2 (Homo sapiens (Human), UniProt P05177); experiment: CYP inhibition test, pooled human hepatic microsome, 7-ethoxyresorufin O-deethylation; format: in vitro ADME; conditions: substrate ethoxyresorufin
Method: as §1, §2, §3

human liver microsomes = experiment: Metabolism stability test with pooled human hepatic microsomes; format: in vitro ADME; conditions: compound concentration 0.5 μmol/L, 30 minutes, NADPH
Method: Using commercially available pooled human hepatic microsomes, a test compound is reacted for a constant time, a remaining rate is calculated by comparing a reacted sample and an unreacted sample, thereby, a degree of metabolism in liver is assessed.
A reaction was performed (oxidative reaction) at 37° C. for 0 minute or 30 minutes in the presence of 1 mmol/L NADPH in 0.2 mL of a buffer (50 mmol/L tris-HCl pH 7.4, 150 mmol/L potassium chloride, 10 mmol/L magnesium chloride) containing 0.5 mg protein/mL of human liver microsomes. After the reaction, 50 μL of the reaction solution was added to 100 μL of a methanol/acetonitrile=1/1 (v/v), mixed and centrifuged at 3000 rpm for 15 minutes. The test compound in the supernatant was quantified by LC/MS/MS, and a remaining amount of the test compound after the reaction was calculated, letting a compound amount at 0 minute reaction time to be 100%.

human P2X3 receptor = human P2X3 receptor (Homo sapiens (Human), UniProt P56373); experiment: Evaluation of human P2X3 receptor inhibitory activity (Fluo-3 calcium fluorescence, FDSS 3000, ATP stimulation); format: cell-based;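 note: stimulus was 50 nM ATP with fluorescence followed for 3 min, and the response per well was peak post-ATP fluorescence divided by the reading at measurement start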
rat P2X3 receptor = rat P2X3 receptor (Rattus norvegicus (Rat), UniProt P49654); experiment: Evaluation of rat P2X3 receptor inhibitory activity in the presence of rat serum albumin (1% RSA); format: cell-based
Method: Rat P2X3 receptor gene (GenBank accession number NM_031075) was expressed in C6BU-1 cell. The cells stably expressing rat P2X3 were seeded in a 96-well microtiter plate at a :concentration of 8000 cells/well and cultured in the medium (8.3% fetal bovine serum, 8.3% horse serum, 1% antibiotic and antifungal in DMEM) for one day at 37° C. under 5% carbon dioxide atmosphere. In transiently expressing system, the C6BU-1 cells were seeded in a 96-well microtiter plate at a concentration of 2500 cells/well and cultured in the medium for one day at 37° C. under 5% carbon dioxide atmosphere. The plasmid was transfected into the cells using transfection reagent FuGENE6 (Roche). The transfected cells were cultured in the medium for one day at 37° C. under 5% carbon dioxide atmosphere. […] Measurement of fluorescence intensity by FDSS 3000 was started, and 40 μL of DMSO solutions containing 1% RSA (final concentrations) and different concentrations of the test compound as prepared by dilution with dilution buffer (20 mM HEPES, 137 mM NaCl, 2.7 mM KCl, 0.9 mM MgCl2, 5.0 mM CaCl2, 5.0 mM D-glucose, 2.5 mM probenecid, 0.1% Pluronic F-127, pH 7.5) were dispensed to each well through the built-in automatic dispenser. Five minutes after, 50 nM ATP solution (50 μL) prepared by dilution with the dilution buffer was dispensed through the built-in automatic dispenser, and the measurement of fluorescence intensity was continued for 3 min. For each well, the specific maximum fluorescence intensity was calculated as the ratio of the maximum fluorescence intensity after addition of the ATP solution to the fluorescence intensity at the starting of the measurement. […] FDSS software (Hamamatsu Photonics K.K.) was used for calculation of the specific maximum fluorescence intensity. IC50 was calculated using Microsoft Excel (Microsoft Corporation) and XLfit (idbs Ltd.).

CYP2C9 = CYP2C9 (Homo sapiens (Human), UniProt P11712); experiment: CYP inhibition test, pooled human hepatic microsome, tolbutamide methyl-hydroxylation; format: in vitro ADME; conditions: substrate tolbutamide
Method: as §1, §2, §3

serum = experiment: Protein binding test (equilibrium dialysis, serum); format: in vitro ADME; conditions: 37° C., 24 hours, 2 μg/mL
Method: The unbound fraction the present compound in serum was measured using serum of various species.
The reactive conditions are as follows: Evaluation method, Equilibrium dialysis; Reaction time, 24 hours; Reaction temperature, 37° C.; Concentration of the present compound, 2 μg/mL.
The test solution was added to each serum and the mixture was agitated to prepare the serum samples at the concentration mentioned above. Each serum sample was added into one side or the cell and phosphate buffered saline (PBS) was added into the other side to perform equilibrium dialysis at 37° C. for 24 hours. Then, the concentration of the compounds in the samples that were obtained from both sides was measured by LC/MS/MS.
(Result) The ratio of PBS concentration to serum concentration is expressed as unbound fraction.

[1] = human P2X3 receptor, Test Example 1

Chain of CYP2C19 (P33261 whole entry): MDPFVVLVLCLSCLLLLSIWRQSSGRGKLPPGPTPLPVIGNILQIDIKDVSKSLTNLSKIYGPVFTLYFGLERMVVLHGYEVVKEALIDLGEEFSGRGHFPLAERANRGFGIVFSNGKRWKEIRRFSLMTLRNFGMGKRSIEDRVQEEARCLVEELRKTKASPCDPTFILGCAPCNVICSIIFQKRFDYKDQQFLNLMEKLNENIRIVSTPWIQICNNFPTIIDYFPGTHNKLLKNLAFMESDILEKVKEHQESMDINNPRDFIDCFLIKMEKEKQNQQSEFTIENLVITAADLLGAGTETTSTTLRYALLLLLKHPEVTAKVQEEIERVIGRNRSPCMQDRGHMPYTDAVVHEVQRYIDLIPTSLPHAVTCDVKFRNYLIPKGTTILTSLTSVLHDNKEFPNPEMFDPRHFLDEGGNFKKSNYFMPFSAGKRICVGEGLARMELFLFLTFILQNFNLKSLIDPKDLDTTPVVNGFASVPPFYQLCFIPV
Chain of rat P2X3 receptor (P49654 whole entry): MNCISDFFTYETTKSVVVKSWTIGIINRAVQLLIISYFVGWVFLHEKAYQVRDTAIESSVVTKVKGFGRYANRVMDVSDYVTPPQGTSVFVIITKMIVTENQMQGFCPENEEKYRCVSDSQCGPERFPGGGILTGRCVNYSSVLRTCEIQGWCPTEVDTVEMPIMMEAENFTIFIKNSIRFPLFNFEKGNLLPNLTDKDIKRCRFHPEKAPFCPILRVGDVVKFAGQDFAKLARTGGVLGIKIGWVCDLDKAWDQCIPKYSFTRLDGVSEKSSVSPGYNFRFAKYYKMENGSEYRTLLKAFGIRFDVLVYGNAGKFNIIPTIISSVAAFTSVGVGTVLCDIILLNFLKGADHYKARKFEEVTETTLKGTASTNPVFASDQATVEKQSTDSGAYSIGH
Chain of human P2X3 receptor (P56373 whole entry): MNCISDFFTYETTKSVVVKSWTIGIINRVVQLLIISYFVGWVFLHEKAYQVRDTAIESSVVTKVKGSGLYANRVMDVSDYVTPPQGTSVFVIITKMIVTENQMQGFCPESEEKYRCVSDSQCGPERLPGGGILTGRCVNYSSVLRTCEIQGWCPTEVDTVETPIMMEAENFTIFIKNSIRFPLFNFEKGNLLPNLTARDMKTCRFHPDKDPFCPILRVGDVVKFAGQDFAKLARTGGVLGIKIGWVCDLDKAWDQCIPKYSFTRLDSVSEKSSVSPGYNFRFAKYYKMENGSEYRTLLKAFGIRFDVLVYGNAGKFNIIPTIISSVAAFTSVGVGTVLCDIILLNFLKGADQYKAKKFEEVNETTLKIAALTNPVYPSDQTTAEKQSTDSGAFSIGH
Chain of CYP1A2 (P05177 whole entry): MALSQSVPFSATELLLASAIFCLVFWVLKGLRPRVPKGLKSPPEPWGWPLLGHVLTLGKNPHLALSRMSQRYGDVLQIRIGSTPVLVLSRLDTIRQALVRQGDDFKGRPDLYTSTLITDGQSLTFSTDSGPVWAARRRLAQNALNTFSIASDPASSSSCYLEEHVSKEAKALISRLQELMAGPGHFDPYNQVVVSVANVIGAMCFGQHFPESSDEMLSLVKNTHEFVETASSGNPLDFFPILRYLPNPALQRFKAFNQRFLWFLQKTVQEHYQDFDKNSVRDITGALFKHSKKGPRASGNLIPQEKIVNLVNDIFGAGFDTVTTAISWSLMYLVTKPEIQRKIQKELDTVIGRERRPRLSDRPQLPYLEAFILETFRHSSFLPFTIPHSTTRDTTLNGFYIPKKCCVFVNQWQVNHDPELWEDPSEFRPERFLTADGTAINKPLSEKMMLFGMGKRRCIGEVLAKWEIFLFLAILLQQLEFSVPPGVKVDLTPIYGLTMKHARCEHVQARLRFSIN
Chain of CYP2C9 (P11712 whole entry): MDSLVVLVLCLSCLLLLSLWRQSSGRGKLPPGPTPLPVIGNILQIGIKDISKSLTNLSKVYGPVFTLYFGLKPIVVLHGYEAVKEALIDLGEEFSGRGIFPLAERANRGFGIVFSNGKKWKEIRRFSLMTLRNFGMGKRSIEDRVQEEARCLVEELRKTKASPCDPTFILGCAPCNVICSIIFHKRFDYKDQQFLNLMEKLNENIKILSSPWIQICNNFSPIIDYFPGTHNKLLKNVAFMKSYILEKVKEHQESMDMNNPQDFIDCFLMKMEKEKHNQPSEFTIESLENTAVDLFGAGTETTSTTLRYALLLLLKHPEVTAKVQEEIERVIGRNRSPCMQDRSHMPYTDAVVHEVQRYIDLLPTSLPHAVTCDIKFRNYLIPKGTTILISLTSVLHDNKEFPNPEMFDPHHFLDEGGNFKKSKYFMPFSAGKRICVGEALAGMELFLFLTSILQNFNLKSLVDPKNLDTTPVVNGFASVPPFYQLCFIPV

SMILES | IC50 (CYP2C19) | IC50 (CYP1A2) | remaining rate (human liver microsomes) | IC50 (human P2X3 receptor; [1]) | rat P2X3 (+RSA) IC50 (rat P2X3 receptor) | IC50 (CYP2C9) | unbound fraction (ratio of PBS concentration to serum concentration) (serum) | IC50 (human P2X3 receptor; C6BU-1 cells stably expressing human P2X3 receptor, Fluo-3 fluorescence, FDSS 3000)
C[C@@H](Cn1c(=O)[nH]/c(=N\c2ccc(OCC3CC3)cc2)n(Cc2ccc(Cl)cc2)c1=O)C(=O)O [Compound I-0837] | > 20000 nM | > 20000 nM | 99% | 17 nM | 44 nM | > 20000 nM | 2.1% | 
CCn1c(=O)[nH]/c(=N\c2ccc(Oc3ccnc(C(=O)O)c3)cc2)n(Cc2ccc(Cl)cc2)c1=O [Compound I-1788] | > 20000 nM | > 20000 nM | > 99.9% |  | 59 nM | > 20000 nM |  | 5 nM
O=c1[nH]/c(=N\c2ccc(Oc3ccon3)cc2)n(Cc2ccc(Cl)cc2)c(=O)n1CC(CO)CO [Compound I-2291] | > 20000 nM | > 20000 nM | 94% | 4 nM | 20 nM | > 20000 nM | 4.5% | 
